Key:
[1] = Solid state solubility of PTX and TXT in polymers (phase separation in cast films); assay type: physicochemical; design: key: +ve: Phase separation; −ve: No phase separation
From the text: For this example, polymer and drug solutions in chloroform at different % of drug to polymer were casted into films on glass slides. Following solvent evaporation of chloroform in a chemical hood overnight, the casted films were observed under a light microscope. Phase separation was clearly evident from crystallization of the drug in the polymer film whereas the films were homogeneous when there was no phase separation.

PC-3 cells = test: Cytotoxicity of TXT and TXT-NPs in PC-3 cells; assay type: cell-based; settings: for IC50 / IC90: Homo sapiens
From the text: (§1) In order to confirm the efficacy of TXT NPs, we determined IC50 of the drug and drug encapsulated in NPs in PC-3 and DU145 cells.

DU145 cells = test: Cytotoxicity of TXT and TXT-NPs in DU145 cells; assay type: cell-based; settings: DU145, 5 day
From the text: as §1

Phase Separation ([1]; drug 1% w/w, polymer inherent viscosity 0.16 dL/g, Lactide/Glycolide 50/50): −
Phase Separation ([1]; drug 1% w/w, polymer inherent viscosity 0.18 dL/g, Lactide/Glycolide 75/25): +
Phase Separation ([1]; drug 1% w/w, polymer inherent viscosity 0.26-0.54 dL/g, Lactide/Glycolide 50/50, Ester Terminated): +
Phase Separation ([1]; drug 1% w/w, polymer inherent viscosity 0.39 dL/g, Lactide/Glycolide 50/50): −
Phase Separation ([1]; drug 1% w/w, polymer inherent viscosity 0.55-0.75 dL/g, Lactide/Glycolide 50/50, Carbohydrate end Group): +
Phase Separation ([1]; drug 1% w/w, polymer inherent viscosity 0.63 dL/g, Lactide/Glycolide 85/15): +
Phase Separation ([1]; drug 1% w/w, polymer inherent viscosity 0.64 dL/g, Lactide/Glycolide 65/35): +
Phase Separation ([1]; drug 1% w/w, polymer inherent viscosity 0.64 dL/g, Lactide/Glycolide 75/25): +
Phase Separation ([1]; drug 1% w/w, polymer inherent viscosity 0.67 dL/g, Lactide/Glycolide 65/35): −
Phase Separation ([1]; drug 1% w/w, polymer inherent viscosity 0.69 dL/g, Lactide/Glycolide 50/50 (first of two such lines, r12)): −
Phase Separation ([1]; drug 1% w/w, polymer inherent viscosity 0.69 dL/g, Lactide/Glycolide 50/50 (second of two such lines, r13)): +
Phase Separation ([1]; drug 1% w/w, polymer inherent viscosity 0.76-0.94 dL/g, Lactide/Glycolide 50/50): +
Phase Separation ([1]; drug 1% w/w, polymer inherent viscosity 0.87 dL/g, Lactide/Glycolide 50/50): +
Phase Separation ([1]; drug 1% w/w, polymer inherent viscosity 0.95-1.20 dL/g, Lactide/Glycolide 50/50): −
Phase Separation ([1]; drug 1% w/w, polymer inherent viscosity 1.15 dL/g, Lactide/Glycolide 50/50): +
Phase Separation ([1]; drug 1% w/w, polymer inherent viscosity 1.24 dL/g, Lactide/Glycolide 50/50): +
Phase Separation ([1]; drug 5% w/w, polymer inherent viscosity 0.16 dL/g, Lactide/Glycolide 50/50): −
Phase Separation ([1]; drug 5% w/w, polymer inherent viscosity 0.18 dL/g, Lactide/Glycolide 75/25): +
Phase Separation ([1]; drug 5% w/w, polymer inherent viscosity 0.26-0.54 dL/g, Lactide/Glycolide 50/50, Ester Terminated): +
Phase Separation ([1]; drug 5% w/w, polymer inherent viscosity 0.39 dL/g, Lactide/Glycolide 50/50): −
Phase Separation ([1]; drug 5% w/w, polymer inherent viscosity 0.55-0.75 dL/g, Lactide/Glycolide 50/50, Carbohydrate end Group): +
Phase Separation ([1]; drug 5% w/w, polymer inherent viscosity 0.63 dL/g, Lactide/Glycolide 85/15): +
Phase Separation ([1]; drug 5% w/w, polymer inherent viscosity 0.64 dL/g, Lactide/Glycolide 65/35): +
Phase Separation ([1]; drug 5% w/w, polymer inherent viscosity 0.64 dL/g, Lactide/Glycolide 75/25): +
Phase Separation ([1]; drug 5% w/w, polymer inherent viscosity 0.67 dL/g, Lactide/Glycolide 65/35): +
Phase Separation ([1]; drug 5% w/w, polymer inherent viscosity 0.69 dL/g, Lactide/Glycolide 50/50 (first of two such lines, r12)): −
Phase Separation ([1]; drug 5% w/w, polymer inherent viscosity 0.69 dL/g, Lactide/Glycolide 50/50 (second of two such lines, r13)): +
Phase Separation ([1]; drug 5% w/w, polymer inherent viscosity 0.76-0.94 dL/g, Lactide/Glycolide 50/50): +
Phase Separation ([1]; drug 5% w/w, polymer inherent viscosity 0.87 dL/g, Lactide/Glycolide 50/50): +
Phase Separation ([1]; drug 5% w/w, polymer inherent viscosity 0.95-1.20 dL/g, Lactide/Glycolide 50/50): −
Phase Separation ([1]; drug 5% w/w, polymer inherent viscosity 1.15 dL/g, Lactide/Glycolide 50/50): +
Phase Separation ([1]; drug 5% w/w, polymer inherent viscosity 1.24 dL/g, Lactide/Glycolide 50/50): +
Phase Separation ([1]; drug 10% w/w, polymer inherent viscosity 0.16 dL/g, Lactide/Glycolide 50/50): −
Phase Separation ([1]; drug 10% w/w, polymer inherent viscosity 0.18 dL/g, Lactide/Glycolide 75/25): +
Phase Separation ([1]; drug 10% w/w, polymer inherent viscosity 0.26-0.54 dL/g, Lactide/Glycolide 50/50, Ester Terminated): +
Phase Separation ([1]; drug 10% w/w, polymer inherent viscosity 0.39 dL/g, Lactide/Glycolide 50/50): −
Phase Separation ([1]; drug 10% w/w, polymer inherent viscosity 0.55-0.75 dL/g, Lactide/Glycolide 50/50, Carbohydrate end Group): +
Phase Separation ([1]; drug 10% w/w, polymer inherent viscosity 0.63 dL/g, Lactide/Glycolide 85/15): +
Phase Separation ([1]; drug 10% w/w, polymer inherent viscosity 0.64 dL/g, Lactide/Glycolide 65/35): +
Phase Separation ([1]; drug 10% w/w, polymer inherent viscosity 0.64 dL/g, Lactide/Glycolide 75/25): +
Phase Separation ([1]; drug 10% w/w, polymer inherent viscosity 0.67 dL/g, Lactide/Glycolide 65/35): +
Phase Separation ([1]; drug 10% w/w, polymer inherent viscosity 0.69 dL/g, Lactide/Glycolide 50/50 (first of two such lines, r12)): −
Phase Separation ([1]; drug 10% w/w, polymer inherent viscosity 0.69 dL/g, Lactide/Glycolide 50/50 (second of two such lines, r13)): +
Phase Separation ([1]; drug 10% w/w, polymer inherent viscosity 0.76-0.94 dL/g, Lactide/Glycolide 50/50): +
Phase Separation ([1]; drug 10% w/w, polymer inherent viscosity 0.87 dL/g, Lactide/Glycolide 50/50): +
Phase Separation ([1]; drug 10% w/w, polymer inherent viscosity 0.95-1.20 dL/g, Lactide/Glycolide 50/50): −
Phase Separation ([1]; drug 10% w/w, polymer inherent viscosity 1.15 dL/g, Lactide/Glycolide 50/50): +
Phase Separation ([1]; drug 10% w/w, polymer inherent viscosity 1.24 dL/g, Lactide/Glycolide 50/50): +
Phase Separation ([1]; drug 15% w/w, polymer inherent viscosity 0.16 dL/g, Lactide/Glycolide 50/50): −
Phase Separation ([1]; drug 15% w/w, polymer inherent viscosity 0.18 dL/g, Lactide/Glycolide 75/25): +
Phase Separation ([1]; drug 15% w/w, polymer inherent viscosity 0.26-0.54 dL/g, Lactide/Glycolide 50/50, Ester Terminated): +
Phase Separation ([1]; drug 15% w/w, polymer inherent viscosity 0.39 dL/g, Lactide/Glycolide 50/50): −
Phase Separation ([1]; drug 15% w/w, polymer inherent viscosity 0.55-0.75 dL/g, Lactide/Glycolide 50/50, Carbohydrate end Group): +
Phase Separation ([1]; drug 15% w/w, polymer inherent viscosity 0.63 dL/g, Lactide/Glycolide 85/15): +
Phase Separation ([1]; drug 15% w/w, polymer inherent viscosity 0.64 dL/g, Lactide/Glycolide 65/35): +
Phase Separation ([1]; drug 15% w/w, polymer inherent viscosity 0.64 dL/g, Lactide/Glycolide 75/25): +
Phase Separation ([1]; drug 15% w/w, polymer inherent viscosity 0.67 dL/g, Lactide/Glycolide 65/35): +
Phase Separation ([1]; drug 15% w/w, polymer inherent viscosity 0.69 dL/g, Lactide/Glycolide 50/50 (first of two such lines, r12)): −
Phase Separation ([1]; drug 15% w/w, polymer inherent viscosity 0.69 dL/g, Lactide/Glycolide 50/50 (second of two such lines, r13)): +
Phase Separation ([1]; drug 15% w/w, polymer inherent viscosity 0.76-0.94 dL/g, Lactide/Glycolide 50/50): +
Phase Separation ([1]; drug 15% w/w, polymer inherent viscosity 0.87 dL/g, Lactide/Glycolide 50/50): +
Phase Separation ([1]; drug 15% w/w, polymer inherent viscosity 0.95-1.20 dL/g, Lactide/Glycolide 50/50): −
Phase Separation ([1]; drug 15% w/w, polymer inherent viscosity 1.15 dL/g, Lactide/Glycolide 50/50): +
Phase Separation ([1]; drug 15% w/w, polymer inherent viscosity 1.24 dL/g, Lactide/Glycolide 50/50): +
Phase Separation ([1]; drug 20% w/w, polymer inherent viscosity 0.16 dL/g, Lactide/Glycolide 50/50): −
Phase Separation ([1]; drug 20% w/w, polymer inherent viscosity 0.18 dL/g, Lactide/Glycolide 75/25): +
Phase Separation ([1]; drug 20% w/w, polymer inherent viscosity 0.26-0.54 dL/g, Lactide/Glycolide 50/50, Ester Terminated): +
Phase Separation ([1]; drug 20% w/w, polymer inherent viscosity 0.39 dL/g, Lactide/Glycolide 50/50): −
Phase Separation ([1]; drug 20% w/w, polymer inherent viscosity 0.55-0.75 dL/g, Lactide/Glycolide 50/50, Carbohydrate end Group): +
Phase Separation ([1]; drug 20% w/w, polymer inherent viscosity 0.63 dL/g, Lactide/Glycolide 85/15): +
Phase Separation ([1]; drug 20% w/w, polymer inherent viscosity 0.64 dL/g, Lactide/Glycolide 65/35): +
Phase Separation ([1]; drug 20% w/w, polymer inherent viscosity 0.64 dL/g, Lactide/Glycolide 75/25): +
Phase Separation ([1]; drug 20% w/w, polymer inherent viscosity 0.67 dL/g, Lactide/Glycolide 65/35): +
Phase Separation ([1]; drug 20% w/w, polymer inherent viscosity 0.69 dL/g, Lactide/Glycolide 50/50 (first of two such lines, r12)): +
Phase Separation ([1]; drug 20% w/w, polymer inherent viscosity 0.69 dL/g, Lactide/Glycolide 50/50 (second of two such lines, r13)): +
Phase Separation ([1]; drug 20% w/w, polymer inherent viscosity 0.76-0.94 dL/g, Lactide/Glycolide 50/50): +
Phase Separation ([1]; drug 20% w/w, polymer inherent viscosity 0.87 dL/g, Lactide/Glycolide 50/50): +
Phase Separation ([1]; drug 20% w/w, polymer inherent viscosity 0.95-1.20 dL/g, Lactide/Glycolide 50/50): +
Phase Separation ([1]; drug 20% w/w, polymer inherent viscosity 1.15 dL/g, Lactide/Glycolide 50/50): +
Phase Separation ([1]; drug 20% w/w, polymer inherent viscosity 1.24 dL/g, Lactide/Glycolide 50/50): +
Structure (SMILES): CC(=O)O[C@@]12CO[C@@H]1C[C@H](O)[C@@]1(C)C(=O)[C@H](O)C3=C(C)[C@@H](OC(=O)[C@H](O)[C@@H](NC(=O)OC(C)(C)C)c4ccccc4)C[C@@](O)([C@@H](OC(=O)c4ccccc4)[C@H]21)C3(C)C [Docetaxel, (2R,3S)-N-carboxy-3-phenylisoserine, N-tert-butyl ester, 13-ester with 5b-20-epoxy-12a,4,7b,10b,13a-hexahydroxytax-11-en-9-one 4-acetate 2-benzoate, trihydrate]
IC50 (PC-3 cells; PC-3, 72 h, PC3, 3 day): 2.5 ± 0.05 ng/mL
IC90 (PC-3 cells; PC-3, 72 h, PC3, 3 day): 6.31 ± 0.17 ng/mL
IC50 (PC-3 cells; PC-3, 120 h, PC3, 5 day): 1.6 ± 0.01 ng/mL
IC90 (PC-3 cells; PC-3, 120 h, PC3, 5 day): 5 ± 0.07 ng/mL
IC50 (PC-3 cells; PC-3, 168 h, PC3, 7 day): 1.6 ± 0.01 ng/mL
IC90 (PC-3 cells; PC-3, 168 h, PC3, 7 day): 4.2 ± 0.08 ng/mL
IC75 (PC-3 cells; PC3, 3 day): 3.8 ± 0.03 ng/mL
IC75 (PC-3 cells; PC3, 5 day): 2.5 ± 0.02 ng/mL
IC75 (PC-3 cells; PC3, 7 day): 2.5 ± 0.01 ng/mL
IC75 (DU145 cells): 1.9 ± 0.03 ng/mL
IC50 (DU145 cells; Homo sapiens, DU-145, 120 h): 1.5 ± 0.04 ng/mL
IC90 (DU145 cells; Homo sapiens, DU-145, 120 h): 2.4 ± 0.02 ng/mL
